Data taken from patent US7658916B2, “Methods of enhancing lysosomal storage disease therapy by modulation of cell surface receptor density” (Genzyme Corporation, priority 2002, dated 2010).

What was measured:
Details in all cases: separate experiment, FIG. 9
Hep 3B cells = test: Alpha-galactosidase uptake by Hep3B cells (hepatocytes) in vitro; assay type: cell-based
Protocol: Muscles are the major target tissues for enzyme replacement therapy of Pompe disease due to the lack of acid alpha-glucosidase. To determine if the M6P/IGF-II receptor-mediated lysosomal enzyme uptake pathway can be augmented by insulin/glucose, the effects of insulin/glucose were analyzed on induced muscle cells (myotubes) in vitro. L6 myoblasts (or induced myotubes) and Hep3B cells were cultured in 6-well dishes. Rat L6 myoblasts (ATCC# CRL-1458) were cultured at 37° C. under 5% CO2 in VitaCell DMEM media (ATCC# 30-2002) with 4 mM L-glutamine, 10% fetal bovine serum (Gibco #16000-044) and 1× penicillin/streptomycin. Once confluent, cells were switched to VitaCell DMEM plus 2% horse sera (Gibco# 26050-088) and 1× penicillin/streptomycin. Media were changed every 3 days and at day 9-10, myotubes could be observed as multinuclear tubes. About 30-40% of the myoblasts formed myotubes. Cells were used for uptake assay at day 10. Hep3B cells were grown in MEM-eagle (Gibco# 11960-044) with 10% FBS, 1×NEAA, 1× sodium pyruvate and 1× penicillin/streptomycin.
Before the uptake assay, the cells were washed once with PBS and once with DMEM minus glucose media (Gibco#11966-025), then the cells were starved in 1.5 ml of DMEM minus glucose media for 1 hour at 37° C. […]

normal fibroblast cells = test: Alpha-galactosidase uptake by normal fibroblasts in vitro; assay type: cell-based, human
Protocol: Before the uptake assay, the cells were washed once with PBS and once with DMEM minus glucose media (Gibco#11966-025), then the cells were starved in 1.5 ml of DMEM minus glucose media for 1 hour at 37° C. […] The lysates were assay for alpha-galactosidase activity with 4-MU-galactoside (Sigma #M-7633) as substrate and normalized to protein content.
Human skin fibroblasts (ATCC# CRL-1502) were grown at 37° C. under 5% CO2 in MEM with Earle's balanced salts, 2× essential and non-essential amino acids (NEAA) (Gibco# 11130-051, 11140-050) and vitamin (Gibco# 1120-052), 20% fetal bovine serum (Gibco# 16000-044, not heat-inactivated) plus 1× penicillin/streptomycin. The pH of the media was adjusted to approximately 7 with sodium bicarbonate (Gibco #25080-094).

Fabry fibroblast cells = test: Alpha-galactosidase uptake by Fabry fibroblasts in vitro; assay type: cell-based
Protocol: Before the uptake assay, the cells were washed once with PBS and once with DMEM minus glucose media (Gibco#11966-025), then the cells were starved in 1.5 ml of DMEM minus glucose media for 1 hour at 37° C. After starvation, the cells were switched to uptake media (DMEM with or without glucose, plus 4 mg/ml BSA, 2.5 mM beta-glycerophosphate (Sigma #G-6376), 25 mM Hepes, pH 6.8. Insulin (Calbiochem, #40769), M6P (Sigma # M-6876) and 2 μg/ml recombinant human alpha-galactosidase (as a model protein because of its better M6P phosphylation) were added as indicated in FIGS. 7A and 7B. Uptake of enzyme was continued for 4 hours at 37° C. After uptake, the cells were washed twice with PBS containing 1 mM M6P and once with PBS, then lysed in alpha-galactosidase assay buffer (50 mM sodium citrate, […]) plus 1% Triton X-100 and protease inhibitors. The lysates were assay for alpha-galactosidase activity with 4-MU-galactoside (Sigma #M-7633) as substrate and normalized to protein content.
Human skin fibroblasts (ATCC# CRL-1502) were grown at 37° C. under 5% CO2 in MEM with Earle's balanced salts, 2× essential and non-essential amino acids (NEAA) (Gibco# 11130-051, 11140-050) and vitamin (Gibco# 1120-052), 20% fetal bovine serum (Gibco# 16000-044, not heat-inactivated) plus 1× penicillin/streptomycin. […]

insulin: Insulin (Calbiochem, #40769)
about 200%: alpha-galactosidase uptake by Hep 3B cells increased to (Hep 3B cells) | alpha-galactosidase uptake by normal fibroblast cells increased to (normal fibroblast cells) | alpha-galactosidase uptake by Fabry fibroblast cells increased to (Fabry fibroblast cells)
